“And” between values parts separate entries of the source, which are not always exact repeats. Equal entries are not always repeated. Inconclusive results and toxic doses are left out. No stated cut-off is given here; in the data, active means T/C of 150% or more; inactive means T/C below 125%.
Test system: L1210 leukemia ip in BDF1 mice, survival T/C
Experiment: NCI In Vivo Anticancer Drug Screen. Data for tumor model L1210 Leukemia (intraperitoneal) in B6D2F1 (BDF1) mice
Conditions: endpoint: mean survival time, higher = longer survival
Outline: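 Transplanted-tumor mice were given test agent; controls received vehicle only. Survival readings from the two groups were divided (treated over control).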

[1] = dose: 100.0 mg/kg/injection, schedule: Q04DX002 (ip), vehicle: Klucel (hydroxypropylcellulose) (HPC)
[2] = dose: 200.0 mg/kg/injection, schedule: Q04DX002 (ip), vehicle: Klucel (hydroxypropylcellulose) (HPC)
[3] = dose: 400.0 mg/kg/injection, schedule: Q04DX002 (ip), vehicle: Klucel (hydroxypropylcellulose) (HPC)
[4] = dose: 50.0 mg/kg/injection, schedule: Q01DX009 (ip), vehicle: saline with Tween-80
[5] = dose: 100.0 mg/kg/injection, schedule: Q01DX009 (ip), vehicle: saline with Tween-80
[6] = dose: 200.0 mg/kg/injection, schedule: Q01DX009 (ip), vehicle: saline with Tween-80
[7] = dose: 12.5 mg/kg/injection, schedule: Q01DX009 (ip), vehicle: saline with Tween-80
[8] = dose: 25.0 mg/kg/injection, schedule: Q01DX009 (ip), vehicle: saline with Tween-80
[9] = dose: 100.0 mg/kg/injection, schedule: Q04DX003 (ip), vehicle: Klucel (hydroxypropylcellulose) (HPC)
[10] = dose: 200.0 mg/kg/injection, schedule: Q04DX003 (ip), vehicle: Klucel (hydroxypropylcellulose) (HPC)
[11] = dose: 400.0 mg/kg/injection, schedule: Q04DX003 (ip), vehicle: Klucel (hydroxypropylcellulose) (HPC)
[12] = dose: 50.0 mg/kg/injection, schedule: Q01DX009 (ip), vehicle: saline
[13] = dose: 100.0 mg/kg/injection, schedule: Q01DX009 (ip), vehicle: saline
[14] = dose: 100.0 mg/kg/injection, schedule: Q01DX001 (ip), vehicle: carboxymethylcellulose (CMC)
[15] = dose: 200.0 mg/kg/injection, schedule: Q01DX001 (ip), vehicle: carboxymethylcellulose (CMC)
[16] = dose: 400.0 mg/kg/injection, schedule: Q01DX001 (ip), vehicle: carboxymethylcellulose (CMC)
[17] = dose: 100.0 mg/kg/injection, schedule: Q04DX003 (ip), vehicle: saline with Tween-80
[18] = dose: 200.0 mg/kg/injection, schedule: Q04DX003 (ip), vehicle: saline with Tween-80
[19] = dose: 400.0 mg/kg/injection, schedule: Q01DX009 (ip), vehicle: saline with Tween-80
[20] = dose: 400.0 mg/kg/injection, schedule: Q04DX003 (ip), vehicle: saline with Tween-80
[21] = dose: 100.0 mg/kg/injection, schedule: Q01DX009 (ip), vehicle: Klucel (hydroxypropylcellulose) (HPC)

Measured: T/C

Cc1ccc2[nH]c(CC#N)cc2c1
inactive: [1] 104 % of control | [2] 93 % of control | [3] 100 % of control

COc1cc(/C=N/NC(C)=O)ccc1O
inactive: [4] 97 % of control | [5] 94 % of control | [6] 110 % of control

O=[N+]([O-])c1ccc(N/N=C2\C3CC(c4ccccc4)C2C(c2ccccc2)=C3c2ccccc2)c([N+](=O)[O-])c1 (centres undefined)
inactive: [7] 91 % of control | [8] 88 % of control | [4] 96 % of control | [6] 89 % of control

CC(C)OC(=O)Nc1ccc(Cl)cn1
inactive: [9] 103 % of control | [10] 101 % of control | [11] 95 % of control

CCSC1OC(C(COC(C)=O)OC(C)=O)C(OC(C)=O)C1SCC (centres undefined)
inactive: dose: 100.0 mg/kg/injection, schedule: Q04DX003 (ip), vehicle: other 97 % of control | dose: 200.0 mg/kg/injection, schedule: Q04DX003 (ip), vehicle: other 103 % of control | dose: 400.0 mg/kg/injection, schedule: Q04DX003 (ip), vehicle: other 101 % of control

Cc1ccc(C(C)C)c(OCC2C(=O)C3CCN2CC3)c1 (centres undefined)
inactive: dose: 12.5 mg/kg/injection, schedule: Q04DX003 (ip), vehicle: Klucel (hydroxypropylcellulose) (HPC) 101 % of control | dose: 25.0 mg/kg/injection, schedule: Q04DX003 (ip), vehicle: Klucel (hydroxypropylcellulose) (HPC) 101 % of control | dose: 50.0 mg/kg/injection, schedule: Q04DX003 (ip), vehicle: Klucel (hydroxypropylcellulose) (HPC) 95 % of control

CCOC(=O)N/N=C/c1ccccc1OC
inactive: dose: 75.0 mg/kg/injection, schedule: Q01DX001 (ip), vehicle: saline 90 % of control | dose: 150.0 mg/kg/injection, schedule: Q01DX001 (ip), vehicle: saline 90 % of control | dose: 300.0 mg/kg/injection, schedule: Q01DX001 (ip), vehicle: saline 96 % of control

CCCCNCCO
inactive: dose: 25.0 mg/kg/injection, schedule: Q01DX009 (ip), vehicle: saline 96 % of control | [12] 100 % of control | [13] 115 % of control

O=Nc1ccc(N(CCO)CCO)cc1
inactive: dose: 5.0 mg/kg/injection, schedule: Q01DX001 (ip), vehicle: saline 97 % of control | dose: 10.0 mg/kg/injection, schedule: Q01DX001 (ip), vehicle: saline 97 % of control | dose: 20.0 mg/kg/injection, schedule: Q01DX001 (ip), vehicle: saline 101 % of control | dose: 40.0 mg/kg/injection, schedule: Q01DX001 (ip), vehicle: saline 111 % of control

NCCOCCOCCN
inactive: [12] 108 % of control | [13] 87 % of control

CCCCC(=O)N(CCC)CCC
inactive: dose: 100.0 mg/kg/injection, schedule: Q04DX002 (ip), vehicle: saline 96 % of control | dose: 200.0 mg/kg/injection, schedule: Q04DX002 (ip), vehicle: saline 104 % of control | dose: 400.0 mg/kg/injection, schedule: Q04DX002 (ip), vehicle: saline 104 % of control

COc1cccc(C2CCCCC2OS(C)(=O)=O)c1 (centres undefined)
inactive: [14] 97 % of control | [15] 92 % of control | [16] 95 % of control

O=NN(CCCl)C(=O)c1cc(Cl)cc(Cl)c1
inactive: [7] 115 % of control | [8] 117 % of control | [4] 111 % of control and 91 % of control | [5] 93 % of control | [6] 99 % of control

O=c1c[n+](Cc2ccc(Cl)cc2)[nH]o1
inactive: dose: 100.0 mg/kg/injection, schedule: Q01DX Z (ip), vehicle: saline 100 % of control | dose: 200.0 mg/kg/injection, schedule: Q01DX Z (ip), vehicle: saline 100 % of control

Fc1ccc(C=Nc2cccc(Cl)c2)cc1
inactive: [5] 95 % of control | [17] 103 % of control | [6] 97 % of control | [18] 93 % of control | [19] 100 % of control | [20] 98 % of control

O=C(OCC(O)C(O)C(O)C(O)COC(=O)c1ccccc1)c1ccccc1 (centres undefined)
inactive: [14] 98 % of control | [15] 95 % of control | [16] 95 % of control

CCCNC(=O)Nc1cccc(C(F)(F)F)c1
inactive: [5] 100 % of control | [17] 100 % of control | [6] 97 % of control | [18] 97 % of control | [19] 88 % of control | [20] 106 % of control

COC(=O)C1CC=CC(C)C1C(=O)OC (centres undefined)
inactive: [21] 105 % of control | dose: 200.0 mg/kg/injection, schedule: Q01DX009 (ip), vehicle: Klucel (hydroxypropylcellulose) (HPC) 103 % of control | dose: 400.0 mg/kg/injection, schedule: Q01DX009 (ip), vehicle: Klucel (hydroxypropylcellulose) (HPC) 100 % of control

COc1cc(C=O)ccc1OCc1ccccc1
inactive: [5] 96 % of control and 93 % of control | [17] 110 % of control | [6] 96 % of control | [18] 94 % of control | [19] 98 % of control and 93 % of control | [20] 100 % of control

CCOC(=O)n1c(=O)[nH]c2ccccc21
inactive: dose: 87.5 mg/kg/injection, schedule: Q04DX003 (ip), vehicle: carboxymethylcellulose (CMC) 97 % of control | dose: 175.0 mg/kg/injection, schedule: Q04DX003 (ip), vehicle: carboxymethylcellulose (CMC) 91 % of control | dose: 350.0 mg/kg/injection, schedule: Q04DX003 (ip), vehicle: carboxymethylcellulose (CMC) 101 % of control

NC(=O)/C=C/C(=O)O
inactive: dose: 100.0 mg/kg/injection, schedule: Q01DX001 (ip), vehicle: saline with Tween-80 97 % of control | [5] 98 % of control and 101 % of control | [1] 88 % of control | dose: 100.0 mg/kg/injection, schedule: Q04DX002 (ip), vehicle: saline with Tween-80 94 % of control and 97 % of control | [17] 92 % of control | dose: 200.0 mg/kg/injection, schedule: Q01DX001 (ip), vehicle: saline with Tween-80 108 % of control | [6] 98 % of control and 116 % of control | [2] 88 % of control | dose: 200.0 mg/kg/injection, schedule: Q04DX002 (ip), vehicle: saline with Tween-80 97 % of control and 99 % of control | [18] 106 % of control | dose: 400.0 mg/kg/injection, schedule: Q01DX001 (ip), vehicle: saline with Tween-80 96 % of control | [3] 91 % of control | dose: 400.0 mg/kg/injection, schedule: Q04DX002 (ip), vehicle: saline with Tween-80 90 % of control | [20] 94 % of control

Nc1nc(-c2cc(Br)ccc2N=NN2CCCCC2)nc2ccc(Br)cc12
inactive: [1] 86 % of control | [2] 89 % of control | [3] 99 % of control

CCOC(=O)CCN(Cc1ccco1)C(=S)Nc1ccccc1
inactive: dose: 200.0 mg/kg/injection, schedule: Q01DX Z (ip), vehicle: methylcellulose (MC) 89 % of control

CCOc1c(Br)cc(Br)cc1/C=N/NS(=O)(=O)c1ccc(C)cc1
inactive: dose: 50.0 mg/kg/injection, schedule: Q01DX009 (ip), vehicle: Klucel (hydroxypropylcellulose) (HPC) 103 % of control | [21] 105 % of control | [9] 101 % of control | [10] 109 % of control | [11] 92 % of control
